# Biological target: T1, MAPKAPK5 (Homo sapiens, UniProt Q8IW41)
# T1 sequence (Q8IW41 1-471 isoform Q8IW41-2): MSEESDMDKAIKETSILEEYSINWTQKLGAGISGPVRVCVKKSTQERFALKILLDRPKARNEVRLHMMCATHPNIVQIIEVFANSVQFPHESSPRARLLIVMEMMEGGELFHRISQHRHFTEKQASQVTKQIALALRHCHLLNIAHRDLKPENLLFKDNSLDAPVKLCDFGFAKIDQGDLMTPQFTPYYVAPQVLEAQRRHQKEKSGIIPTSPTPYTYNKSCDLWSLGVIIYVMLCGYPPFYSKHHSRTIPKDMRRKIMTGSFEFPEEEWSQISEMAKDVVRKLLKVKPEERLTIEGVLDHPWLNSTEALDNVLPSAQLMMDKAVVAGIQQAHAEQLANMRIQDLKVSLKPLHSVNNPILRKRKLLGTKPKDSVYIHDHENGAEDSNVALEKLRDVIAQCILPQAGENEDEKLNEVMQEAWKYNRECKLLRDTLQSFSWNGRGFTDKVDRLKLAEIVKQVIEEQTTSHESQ
# Assay: MAPKAP-K5 assay (FlashPlate, 33P-ATP)
# Assay type: biochemical
# Details: 0.6 μM ATP; 3 μM peptide substrate; room temperature 30 minutes
# Protocol: 3 μM MAPKAP-K5 peptide substrate
row,IC50,Structure (SMILES)
1,101 to 500 nM,"O=C1NCc2cc(-c3cnc(Nc4nc(CN5CCOCC5)cs4)c4nccn34)ccc21 [Example 1, 5-(8-(4-(morpholinomethyl)thiazol-2-ylamino)imidazo[1,2-a]pyrazin-5-yl)isoindolin-1-one]"
2,501 to 1000 nM,"O=C1NCc2cc(-c3cnc(Nc4ncc(C(=O)N5CCOCC5)s4)c4nccn34)ccc21 [Example 13, 5-(8-(5-(morpholine-4-carbonyl)thiazol-2-ylamino)imidazol[1,2-a]pyrazin-5-yl)isoindolin-1-one]"
3,1 to 100 nM,"NC(=O)c1cc(-c2cnc(Nc3nc(CN4CCCCC4)cs3)c3ncnn23)co1 [Example 4, 4-(8-(4-(piperidin-1-ylmethyl)thiazol-2-ylamino)-[1,2,4]triazolo[1,5-a]pyrazin-5-yl)furan-2-carboxamide]"
4,> 1000 nM,CC(C)N1CCN(C(=O)c2cnc(Nc3ncc(-c4cn[nH]c4)n4ccnc34)s2)CC1 [Example 23]
5,101 to 500 nM,"O=C1NCc2cc(-c3cnc(Nc4ncc(CN5CCOCC5)s4)c4nccn34)ccc21 [Example 16, 5-(8-(5-(morpholinomethyl)thiazol-2-ylamino)imidazo[1,2-a]pyrazin-5-yl)isoindolin-1-one]"
6,501 to 1000 nM,"CN1CCN(c2nnc(Nc3ncc(-c4ccc5c(c4)CNC5=O)n4ccnc34)s2)CC1 [Example 20, 5-(8-(5-(4-methylpiperazin-1-yl)-1,3,4-thiadiazol-2-ylamino)imidazo[1,2-a]pyrazin-5-yl)isoindolin-1-one]"
7,101 to 500 nM,"Cc1nc(Nc2ncc(-c3ccc4c(c3)CNC4=O)n3ccnc23)sc1C(=O)N(C)C [Example 10, N,N,4-trimethyl-2-(5-(1-oxoisoindolin-5-yl)imidazo[1,2-a]pyrazin-8-ylamino)thiazole-5-carboxamide]"
8,501 to 1000 nM,"Cc1cnc(Nc2ncc(-c3ccc4c(c3)CNC4=O)n3ccnc23)s1 [Example 11, 5-(8-(5-methylthiazol-2-ylamino)imidazo[1,2-a]pyrazin-5-yl)isoindolin-1-one]"
9,> 1000 nM,"c1nc2c(Nc3nc(CN4CCOCC4)cs3)ncc(-c3cn[nH]c3)n2n1 [Example 3, N-(5-(1H-pyrazol-4-yl)-[1,2,4]triazolo[1,5-a]pyrazin-8-yl)-4-(morpholinomethyl)thiazol-2-amine]"
10,501 to 1000 nM,"O=C1NCc2cc(-c3cnc(Nc4nnc(CCN5CCCCC5)s4)c4nccn34)ccc21 [Example 14, 5-(8-(5-(2-(piperidin-1-yl)ethyl)-1,3,4-thiadiazol-2-ylamino)imidazo[1,2-a]pyrazin-5-yl)isoindolin-1-one]"
11,1 to 100 nM,"O=C1NCc2cc(-c3cnc(Nc4nc(CN5CCCCC5)cs4)c4nccn34)ccc21 [Example 9, 5-(8-(4-(piperidin-1-ylmethyl)thiazol-2-ylamino)imidazo[1,2-a]pyrazin-5-yl)isoindolin-1-one]"
12,> 1000 nM,"CN(C)Cc1cnc(Nc2ncc(-c3cn[nH]c3)n3ccnc23)s1 [Example 17, N-(5-(1H-pyrazol-4-yl)imidazo[1,2-a]pyrazin-8-yl)-5-((dimethylamino)methyl)thiazol-2-amine]"
13,> 1000 nM,"c1cn2c(-c3cn[nH]c3)cnc(Nc3ncc(CN4CCOCC4)s3)c2n1 [Example 15, N-(5-(1H-pyrazol-4-yl)imidazo[1,2-a]pyrazin-8-yl)-5-(morpholinomethyl)thiazol-2-amine]"
14,> 1000 nM,"c1nc2c(Nc3nc(CN4CCCCC4)cs3)ncc(-c3cn[nH]c3)n2n1 [Example 25, N-(5-(1H-pyrazol-4-yl)-[1,2,4]triazolo[1,5-a]pyrazin-8-yl)-4-(piperidin-1-ylmethyl)thiazol-2-amine]"
15,> 1000 nM,"c1csc(Nc2ncc(-c3cn[nH]c3)n3ccnc23)n1 [Example 7, N-(5-(1H-pyrazol-4-yl)imidazo[1,2-a]pyrazin-8-yl)thiazol-2-amine]"
16,101 to 500 nM,"O=C1NCc2cc(-c3cnc(Nc4nccs4)c4nccn34)ccc21 [Example 6, 5-(8-(thiazol-2-ylamino)imidazo[1,2-a]pyrazin-5-yl)isoindolin-1-one]"
17,101 to 500 nM,"CC(C)N1CCN(Cc2cnc(Nc3ncc(-c4ccc5c(c4)CNC5=O)n4ccnc34)s2)CC1 [Example 18, 5-(8-(5-((4-isopropylpiperazin-1-yl)methyl)thiazol-2-ylamino)imidazo[1,2-a]pyrazin-5-yl)isoindolin-1-one]"
18,> 1000 nM,"O=C1NCc2cc(-c3cnc(Nc4nncs4)c4nccn34)ccc21 [Example 19, 5-(8-(1,3,4-thiadiazol-2-ylamino)imidazo[1,2-a]pyrazin-5-yl)isoindolin-1-one]"
19,> 1000 nM,"O=C1NCc2cc(-c3cnc(Nc4nc5c(s4)CCC5)c4nccn34)ccc21 [Example 12, 5-(8-(5,6-dihydro-4H-cyclopenta[d]thiazol-2-ylamino)imidazo[1,2-a]pyrazin-5-yl)isoindolin-1-one]"
20,> 1000 nM,"O=C1NCc2cc(-c3cnc(Nc4ncc(CN5CCCCC5)s4)c4nccn34)ccc21 [Example 24, 5-(8-(5-(piperidin-1-ylmethyl)thiazol-2-ylamino)imidazo[1,2-a]pyrazin-5-yl)isoindolin-1-one]"
